Experimental data taken from patent US12043599B2, “Herbicidal compounds” (SYNGENTA PARTICIPATIONS AG, priority 2018, dated 2024).

How the values were obtained:
Format in all cases: in vivo
Conditions in all cases: 250 g/h, evaluated after 13 days
Setaria faberi (SETFA) [1] = assay: Post-emergence herbicidal glasshouse test, percentage damage
In short: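 Wheat, barley and Setaria faberi were sprayed post-emergence after 8 days' growth (24/16 °C, 14 h light, 65% humidity) with compound in acetone/water (50:50) containing 0.5% Tween 20, at the indicated rates. On wheat, compounds were also applied with cloquintocet-mexyl at 50 g/ha. Damage was scored after 13 days on a five-point scale (5=80-100% to 1=0-19%).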

Avena fatua (AVEFA) [2] = assay: as above
In short: (§1)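 A single spray at 250 g/h was given either to soil one day after sowing or to seedlings after eight days' growth. Vehicle was acetone/water (50:50) with 0.5% Tween 20. Thirteen days on, damage was rated in 20% bands, 1 (0-19%) to 5 (80-100%).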

[3] = system: Echinochloa crus-galli (ECHCG); assay: as above
In short: as §1

[4] = system: Alopecurus myosuroides (ALOMY); assay: as above
In short: as §1

Lolium perenne (LOLPE) [5] = assay: as above
In short: as §1

Avena fatua (AVEFA) [6] = assay: Pre-emergence herbicidal glasshouse test, percentage damage
In short: as §1

[7] = system: Echinochloa crus-galli (ECHCG); assay: as above
In short: as §1

[8] = system: Alopecurus myosuroides (ALOMY); assay: as above
In short: as §1

Lolium perenne (LOLPE) [9] = assay: as above
In short: as §1

Setaria faberi (SETFA) [10] = assay: as above
In short: as §1

Structure (SMILES): CC#Cc1cc(C)c(C2C(=O)CC3(CCN(C(=O)c4cccc(C#N)n4)CC3)CC2=O)c(C)c1 [Compound A178]
- SETFA POST percentage damage (five point scale) (Setaria faberi (SETFA) [1]): 5 (5=80-100%)
- AVEFA POST percentage damage (five point scale) (Avena fatua (AVEFA) [2]): 5 (5=80-100%)
- ECHCG POST percentage damage (five point scale) [3]: 5 (5=80-100%)
- ALOMY POST percentage damage (five point scale) [4]: 5 (5=80-100%)
- LOLPE POST percentage damage (five point scale) (Lolium perenne (LOLPE) [5]): 5 (5=80-100%)
- AVEFA PRE percentage damage (five point scale) (Avena fatua (AVEFA) [6]): 5 (5=80-100%)
- ECHCG PRE percentage damage (five point scale) [7]: 4 (4=60-79%)
- ALOMY PRE percentage damage (five point scale) [8]: 4 (4=60-79%)
- LOLPE PRE percentage damage (five point scale) (Lolium perenne (LOLPE) [9]): 5 (5=80-100%)
- SETFA PRE percentage damage (five point scale) (Setaria faberi (SETFA) [10]): 5 (5=80-100%)

Structure (SMILES): CC#Cc1cc(C)c(C2C(=O)CC3(CCN(C(=O)c4cncc(OC)n4)CC3)CC2=O)c(C)c1 [Compound A180]
- SETFA POST percentage damage (five point scale) (Setaria faberi (SETFA) [1]): 5 (5=80-100%)
- AVEFA POST percentage damage (five point scale) (Avena fatua (AVEFA) [2]): 5 (5=80-100%)
- ECHCG POST percentage damage (five point scale) [3]: 5 (5=80-100%)
- ALOMY POST percentage damage (five point scale) [4]: 5 (5=80-100%)
- LOLPE POST percentage damage (five point scale) (Lolium perenne (LOLPE) [5]): 5 (5=80-100%)
- AVEFA PRE percentage damage (five point scale) (Avena fatua (AVEFA) [6]): 5 (5=80-100%)
- ECHCG PRE percentage damage (five point scale) [7]: 5 (5=80-100%)
- ALOMY PRE percentage damage (five point scale) [8]: 5 (5=80-100%)
- LOLPE PRE percentage damage (five point scale) (Lolium perenne (LOLPE) [9]): 5 (5=80-100%)
- SETFA PRE percentage damage (five point scale) (Setaria faberi (SETFA) [10]): 5 (5=80-100%)

Structure (SMILES): CC#Cc1cc(C)c(C2C(=O)CC3(CCN(C(=O)C4=CCCCO4)CC3)CC2=O)c(C)c1 [Compound A182]
- SETFA POST percentage damage (five point scale) (Setaria faberi (SETFA) [1]): 5 (5=80-100%)
- AVEFA POST percentage damage (five point scale) (Avena fatua (AVEFA) [2]): 4 (4=60-79%)
- ECHCG POST percentage damage (five point scale) [3]: 5 (5=80-100%)
- ALOMY POST percentage damage (five point scale) [4]: 5 (5=80-100%)
- LOLPE POST percentage damage (five point scale) (Lolium perenne (LOLPE) [5]): 5 (5=80-100%)
- AVEFA PRE percentage damage (five point scale) (Avena fatua (AVEFA) [6]): 3 (3=40-59%)
- ECHCG PRE percentage damage (five point scale) [7]: 5 (5=80-100%)
- ALOMY PRE percentage damage (five point scale) [8]: 5 (5=80-100%)
- LOLPE PRE percentage damage (five point scale) (Lolium perenne (LOLPE) [9]): 5 (5=80-100%)
- SETFA PRE percentage damage (five point scale) (Setaria faberi (SETFA) [10]): 5 (5=80-100%)

Structure (SMILES): CC#Cc1cc(C)c(C2C(=O)CC3(CCN(C(=O)CCc4ccn(C)n4)CC3)CC2=O)c(C)c1 [Compound A183]
- SETFA POST percentage damage (five point scale) (Setaria faberi (SETFA) [1]): 5 (5=80-100%)
- AVEFA POST percentage damage (five point scale) (Avena fatua (AVEFA) [2]): 5 (5=80-100%)
- ECHCG POST percentage damage (five point scale) [3]: 5 (5=80-100%)
- ALOMY POST percentage damage (five point scale) [4]: 5 (5=80-100%)
- LOLPE POST percentage damage (five point scale) (Lolium perenne (LOLPE) [5]): 5 (5=80-100%)
- AVEFA PRE percentage damage (five point scale) (Avena fatua (AVEFA) [6]): 4 (4=60-79%)
- ECHCG PRE percentage damage (five point scale) [7]: 5 (5=80-100%)
- ALOMY PRE percentage damage (five point scale) [8]: 4 (4=60-79%)
- LOLPE PRE percentage damage (five point scale) (Lolium perenne (LOLPE) [9]): 5 (5=80-100%)
- SETFA PRE percentage damage (five point scale) (Setaria faberi (SETFA) [10]): 5 (5=80-100%)

Structure (SMILES): CC#Cc1cc(C)c(C2C(=O)CC3(CCN(C(=O)CCc4ccccn4)CC3)CC2=O)c(C)c1 [Compound A184]
- SETFA POST percentage damage (five point scale) (Setaria faberi (SETFA) [1]): 5 (5=80-100%)
- AVEFA POST percentage damage (five point scale) (Avena fatua (AVEFA) [2]): 5 (5=80-100%)
- ECHCG POST percentage damage (five point scale) [3]: 5 (5=80-100%)
- ALOMY POST percentage damage (five point scale) [4]: 4 (4=60-79%)
- LOLPE POST percentage damage (five point scale) (Lolium perenne (LOLPE) [5]): 5 (5=80-100%)
- AVEFA PRE percentage damage (five point scale) (Avena fatua (AVEFA) [6]): 2 (2=20-39%)
- ECHCG PRE percentage damage (five point scale) [7]: 4 (4=60-79%)
- ALOMY PRE percentage damage (five point scale) [8]: 1 (1=0-19%)
- LOLPE PRE percentage damage (five point scale) (Lolium perenne (LOLPE) [9]): 5 (5=80-100%)
- SETFA PRE percentage damage (five point scale) (Setaria faberi (SETFA) [10]): 5 (5=80-100%)

Structure (SMILES): CC#Cc1cc(C)c(C2C(=O)CC3(CCN(C(=O)COC(C)(C)C)CC3)CC2=O)c(C)c1 [Compound A185]
- SETFA POST percentage damage (five point scale) (Setaria faberi (SETFA) [1]): 5 (5=80-100%)
- AVEFA POST percentage damage (five point scale) (Avena fatua (AVEFA) [2]): 5 (5=80-100%)
- ECHCG POST percentage damage (five point scale) [3]: 5 (5=80-100%)
- ALOMY POST percentage damage (five point scale) [4]: 5 (5=80-100%)
- LOLPE POST percentage damage (five point scale) (Lolium perenne (LOLPE) [5]): 5 (5=80-100%)
- AVEFA PRE percentage damage (five point scale) (Avena fatua (AVEFA) [6]): 4 (4=60-79%)
- ECHCG PRE percentage damage (five point scale) [7]: 5 (5=80-100%)
- ALOMY PRE percentage damage (five point scale) [8]: 5 (5=80-100%)
- LOLPE PRE percentage damage (five point scale) (Lolium perenne (LOLPE) [9]): 5 (5=80-100%)
- SETFA PRE percentage damage (five point scale) (Setaria faberi (SETFA) [10]): 5 (5=80-100%)

Structure (SMILES): CC#Cc1cc(C)c(C2C(=O)CC3(CCN(C(=O)COCCC)CC3)CC2=O)c(C)c1 [Compound A186]
- SETFA POST percentage damage (five point scale) (Setaria faberi (SETFA) [1]): 5 (5=80-100%)
- AVEFA POST percentage damage (five point scale) (Avena fatua (AVEFA) [2]): 5 (5=80-100%)
- ECHCG POST percentage damage (five point scale) [3]: 5 (5=80-100%)
- ALOMY POST percentage damage (five point scale) [4]: 5 (5=80-100%)
- LOLPE POST percentage damage (five point scale) (Lolium perenne (LOLPE) [5]): 5 (5=80-100%)
- AVEFA PRE percentage damage (five point scale) (Avena fatua (AVEFA) [6]): 5 (5=80-100%)
- ECHCG PRE percentage damage (five point scale) [7]: 5 (5=80-100%)
- ALOMY PRE percentage damage (five point scale) [8]: 5 (5=80-100%)
- LOLPE PRE percentage damage (five point scale) (Lolium perenne (LOLPE) [9]): 5 (5=80-100%)
- SETFA PRE percentage damage (five point scale) (Setaria faberi (SETFA) [10]): 5 (5=80-100%)

Structure (SMILES): CC#Cc1cc(C)c(C2C(=O)CC3(CCN(C(=O)C4CC(C)=NO4)CC3)CC2=O)c(C)c1 (centres unmarked) [Compound A187]
- SETFA POST percentage damage (five point scale) (Setaria faberi (SETFA) [1]): 5 (5=80-100%)
- AVEFA POST percentage damage (five point scale) (Avena fatua (AVEFA) [2]): 5 (5=80-100%)
- ECHCG POST percentage damage (five point scale) [3]: 5 (5=80-100%)
- ALOMY POST percentage damage (five point scale) [4]: 5 (5=80-100%)
- LOLPE POST percentage damage (five point scale) (Lolium perenne (LOLPE) [5]): 5 (5=80-100%)
- AVEFA PRE percentage damage (five point scale) (Avena fatua (AVEFA) [6]): 5 (5=80-100%)
- ECHCG PRE percentage damage (five point scale) [7]: 5 (5=80-100%)
- ALOMY PRE percentage damage (five point scale) [8]: 4 (4=60-79%)
- LOLPE PRE percentage damage (five point scale) (Lolium perenne (LOLPE) [9]): 5 (5=80-100%)
- SETFA PRE percentage damage (five point scale) (Setaria faberi (SETFA) [10]): 5 (5=80-100%)

Structure (SMILES): CC#Cc1cc(C)c(C2C(=O)CC3(CCN(C(=O)c4ccc(C#N)nc4)CC3)CC2=O)c(C)c1 [Compound A191]
- SETFA POST percentage damage (five point scale) (Setaria faberi (SETFA) [1]): 5 (5=80-100%)
- AVEFA POST percentage damage (five point scale) (Avena fatua (AVEFA) [2]): 5 (5=80-100%)
- ECHCG POST percentage damage (five point scale) [3]: 5 (5=80-100%)
- ALOMY POST percentage damage (five point scale) [4]: 5 (5=80-100%)
- LOLPE POST percentage damage (five point scale) (Lolium perenne (LOLPE) [5]): 5 (5=80-100%)
- AVEFA PRE percentage damage (five point scale) (Avena fatua (AVEFA) [6]): 4 (4=60-79%)
- ECHCG PRE percentage damage (five point scale) [7]: 5 (5=80-100%)
- ALOMY PRE percentage damage (five point scale) [8]: 2 (2=20-39%)
- LOLPE PRE percentage damage (five point scale) (Lolium perenne (LOLPE) [9]): 5 (5=80-100%)
- SETFA PRE percentage damage (five point scale) (Setaria faberi (SETFA) [10]): 5 (5=80-100%)

Structure (SMILES): CC#Cc1cc(C)c(C2C(=O)CC3(CCN(C(=O)c4cnccc4C#N)CC3)CC2=O)c(C)c1 [Compound A192]
- SETFA POST percentage damage (five point scale) (Setaria faberi (SETFA) [1]): 5 (5=80-100%)
- AVEFA POST percentage damage (five point scale) (Avena fatua (AVEFA) [2]): 5 (5=80-100%)
- ECHCG POST percentage damage (five point scale) [3]: 5 (5=80-100%)
- ALOMY POST percentage damage (five point scale) [4]: 5 (5=80-100%)
- LOLPE POST percentage damage (five point scale) (Lolium perenne (LOLPE) [5]): 5 (5=80-100%)
- AVEFA PRE percentage damage (five point scale) (Avena fatua (AVEFA) [6]): 3 (3=40-59%)
- ECHCG PRE percentage damage (five point scale) [7]: 5 (5=80-100%)
- ALOMY PRE percentage damage (five point scale) [8]: 3 (3=40-59%)
- LOLPE PRE percentage damage (five point scale) (Lolium perenne (LOLPE) [9]): 5 (5=80-100%)
- SETFA PRE percentage damage (five point scale) (Setaria faberi (SETFA) [10]): 5 (5=80-100%)

Structure (SMILES): CC#Cc1cc(C)c(C2C(=O)CC3(CCN(C(=O)CCCOC)CC3)CC2=O)c(C)c1 [Compound A193]
- SETFA POST percentage damage (five point scale) (Setaria faberi (SETFA) [1]): 5 (5=80-100%)
- AVEFA POST percentage damage (five point scale) (Avena fatua (AVEFA) [2]): 5 (5=80-100%)
- ECHCG POST percentage damage (five point scale) [3]: 5 (5=80-100%)
- ALOMY POST percentage damage (five point scale) [4]: 5 (5=80-100%)
- LOLPE POST percentage damage (five point scale) (Lolium perenne (LOLPE) [5]): 5 (5=80-100%)
- AVEFA PRE percentage damage (five point scale) (Avena fatua (AVEFA) [6]): 5 (5=80-100%)
- ECHCG PRE percentage damage (five point scale) [7]: 5 (5=80-100%)
- ALOMY PRE percentage damage (five point scale) [8]: 5 (5=80-100%)
- LOLPE PRE percentage damage (five point scale) (Lolium perenne (LOLPE) [9]): 5 (5=80-100%)
- SETFA PRE percentage damage (five point scale) (Setaria faberi (SETFA) [10]): 5 (5=80-100%)
